Values after ≈ are worked out from the molar mass of the structure shown.
Legend:
[1] = system: Mycobacterium tuberculosis; test: Antitubercular activity against Mycobacterium tuberculosis H37Rv assessed as inhibition of bacterial growth by broth microdilution method; format: functional
[2] = system: Mycobacterium tuberculosis; test: Antitubercular activity against Mycobacterium tuberculosis H37Rv assessed as inhibition of bacterial growth; format: functional
[3] = system: Mycobacterium tuberculosis; test: Antitubercular activity against Mycobacterium tuberculosis assessed as bacterial growth inhibition; format: functional
[4] = target: T1, Mycosin-1 (Mycobacterium tuberculosis (strain ATCC 25618 / H37Rv)) (UniProt O05461); test: Inhibition of Mycobacterium tuberculosis MycP1 assessed as inhibition rate at 150 uM relative to control
T1 sequence (whole entry): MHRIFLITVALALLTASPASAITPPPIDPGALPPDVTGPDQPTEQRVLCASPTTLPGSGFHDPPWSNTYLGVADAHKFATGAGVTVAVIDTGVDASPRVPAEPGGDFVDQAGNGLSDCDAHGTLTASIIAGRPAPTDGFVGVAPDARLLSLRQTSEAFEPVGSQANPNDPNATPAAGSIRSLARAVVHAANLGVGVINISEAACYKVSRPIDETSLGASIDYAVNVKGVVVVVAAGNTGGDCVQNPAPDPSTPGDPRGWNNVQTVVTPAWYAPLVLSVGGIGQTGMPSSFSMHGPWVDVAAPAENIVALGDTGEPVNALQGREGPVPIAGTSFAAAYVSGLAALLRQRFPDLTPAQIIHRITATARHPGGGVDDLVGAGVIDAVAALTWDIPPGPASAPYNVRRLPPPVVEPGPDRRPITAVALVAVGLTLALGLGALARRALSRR

[5] = system: Mycobacterium tuberculosis; test: Antitubercular activity against Mycobacterium tuberculosis H37Rv assessed as inhibition of bacterial growth incubated for 7 days by REMA assay; format: functional; conditions: 168 h, time 7 day
[6] = target: T2, Thioredoxin reductase (Mycobacterium tuberculosis) (UniProt P9WHH1); test: Inhibition of Mycobacterium tuberculosis Thioredoxin reductase assessed as inhibition
T2 sequence (whole entry): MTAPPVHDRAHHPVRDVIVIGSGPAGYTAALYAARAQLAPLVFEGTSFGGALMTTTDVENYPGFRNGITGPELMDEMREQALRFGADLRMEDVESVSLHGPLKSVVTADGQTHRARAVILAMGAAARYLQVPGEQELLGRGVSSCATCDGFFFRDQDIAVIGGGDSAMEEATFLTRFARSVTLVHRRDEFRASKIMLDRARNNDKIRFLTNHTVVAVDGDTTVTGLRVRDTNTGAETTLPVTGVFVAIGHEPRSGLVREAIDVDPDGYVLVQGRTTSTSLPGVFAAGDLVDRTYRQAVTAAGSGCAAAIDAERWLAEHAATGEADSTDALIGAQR

[7] = system: Mycobacterium tuberculosis; test: Antitubercular activity against Mycobacterium tuberculosis assessed as bacterial growth inhibition by CLSI based broth dilution method; format: functional
[8] = system: Mycobacterium tuberculosis; test: Antitubercular activity against Mycobacterium tuberculosis H37Ra assessed as inhibition of bacterial growth incubated for 28 days by microbroth dilution method; format: functional; conditions: 672 h, time 28 day
[9] = system: Mycobacterium tuberculosis; test: Antitubercular activity against Mycobacterium tuberculosis H37Rv assessed as inhibition of bacterial growth incubated for […] by REMA assay; format: functional
[10] = system: Mycobacterium tuberculosis; test: Antitubercular activity against Mycobacterium tuberculosis H37Rv assessed as inhibition of bacterial growth incubated for 5 days by turbidity-based growth inhibition assay; format: functional; conditions: 120 h, time 5 day
[11] = system: Mycobacterium tuberculosis; test: Antitubercular activity against Mycobacterium tuberculosis H37Rv assessed as inhibition of bacterial growth incubated for 24 hrs by checkerboard assay; format: functional
[12] = system: Mycobacterium tuberculosis; test: Antibacterial activity against Mycobacterium tuberculosis H37Rv assessed as fold increase in sensitivity in presence of copper by REMA assay; format: functional
[13] = system: Mycobacterium tuberculosis; test: Antitubercular activity against Mycobacterium tuberculosis H37Rv assessed as inhibition of bacterial growth by incubated for 7 days by resazurin dye based broth microdilution method; format: functional; conditions: 168 h, time 7 day
[14] = system: Mycobacterium tuberculosis; test: Antitubercular activity against Mycobacterium tuberculosis H37Rv […] THP-1 cells in presence of rifampin; format: functional, organism-based
[15] = system: Mycobacterium tuberculosis; test: Antitubercular activity against Mycobacterium tuberculosis H37Rv […] THP-1 cells in presence of pyrazinamide; format: functional, organism-based
[16] = system: Mycobacterium tuberculosis; test: Antitubercular activity against Mycobacterium tuberculosis H37Rv […] THP-1 cells in presence of isoniazid; format: functional, organism-based
[17] = system: Mycobacterium tuberculosis; test: Antitubercular activity against Mycobacterium tuberculosis H37Rv assessed as inhibition of bacterial growth incubated for 2 days by resazurin-based assay; format: functional; conditions: 48 h, time 2 day
[18] = system: Mycobacterium tuberculosis; test: Antitubercular activity against Mycobacterium tuberculosis H37Rv assessed as inhibition of bacterial growth incubated for 5 days by REMA assay; format: functional; conditions: 120 h, time 5 day
[19] = system: Mycobacterium tuberculosis; test: Antitubercular activity against Mycobacterium tuberculosis H37Rv […] THP-1 cells incubated for 48 hrs by microplate Alamar blue assay; format: functional
[20] = system: Mycobacterium tuberculosis; test: Antitubercular activity against Mycobacterium tuberculosis H37Rv infected in ip dosed BALB/c mouse assessed as inhibition of bacterial growth; format: functional

C[C@@H](O)[C@H]1C(=O)N2C(C(=O)[O-])=C(SC3Cn4cnc[n+]4C3)[C@H](C)[C@H]12 (some centres not stated) [BIAPENEM]
MIC90 [1]: 2.5 µg/mL (≈ 7.13 µM)

CC(C)C[C@H](N)C(=O)NCC(=O)NC[C@H](Cc1ccccc1)B(O)O
MIC [2]: ≤ 5 µg/mL

NC(=O)c1cnccn1 [PYRAZINAMIDE]
MIC [3]: 0.01 µg/mL (≈ 0.0812 µM)

N=C(N)c1ccc(/N=N/Nc2ccc(C(=N)N)cc2)cc1
inhibition [4]: 58%

C=CCNC(=S)NNC(=S)NCC=C
MIC [3]: 0.5 µg/mL (≈ 2.17 µM)

CC(C)Cc1ccc(-c2nn(-c3ccccc3)cc2Cn2ccnc2)cc1
MIC [5]: 1.56 µg/mL (≈ 4.38 µM)

CC(C)C[C@@H](N)C(=O)NCC(=O)NC[C@H](Cc1ccccc1)B(O)O.Cl
MIC [2]: ≤ 5 µg/mL

CCCCC/C=C\C=C\CCCCCCCCC(=O)O
MIC [6]: < 20 µg/mL

C[C@@H](O)[C@H]1C(=O)N2C(C(=O)[O-])=C(SCC(=O)OC3CCCCC3)[C@H](C)[C@H]12.[Na+]
MIC90 [7]: 1 µg/mL

C[C@H]1O[C@H](O[C@H]2[C@H](O)[C@@H](O)[C@@H](O[C@H]3[C@H](O)[C@@H](O)C(O)O[C@@H]3CO)O[C@@H]2CO)[C@H](O)[C@@H](O)[C@@H]1N[C@H]1C=C(CO)[C@@H](O)[C@H](O)[C@H]1O (some centres not stated) [ACARBOSE]
MIC [3]: 0.05 µg/mL (≈ 0.0774 µM)

Nc1nc(N)c(-c2ccc(C(=O)Nc3cccc(OC(F)(F)F)c3)cc2)c(OCc2cncs2)n1
MIC [8]: 6.25 µg/mL (≈ 12.4 µM)

CC(C)CC(N)C(=O)NCC(=O)NC[C@H](C)B1OC2CC3CC(C3(C)C)[C@@]2(C)O1.Cl (some centres not stated)
MIC [2]: ≤ 5 µg/mL

C=C1C[C@@]23CCC4[C@H](C(=O)O)CCC[C@@]4(C)[C@@H]2CC[C@@H]1C3 (some centres not stated)
MIC [6]: 0.5 µg/mL

CCCCCC/C=C/C=C/CCCCCCCC(=O)O
MIC [6]: < 20 µM
MIC [9]: 200 µg/mL (≈ 713 µM)

C[C@@H](O)[C@H]1C(=O)N2C(C(=O)O)=C(S[C@@H]3CN[C@H](CNS(N)(=O)=O)C3)[C@H](C)[C@H]12 (mixture of isomers) [DORIPENEM]
MIC90 [7]: 1 µg/mL

CSC1=C(C(=O)[O-])N2C(=O)[C@H]([C@@H](C)O)[C@H]2[C@H]1C.[Na+]
MIC90 [7]: 0.25 µg/mL

O=C(N[C@@H](Cc1ccccn1)C(=O)N[C@@H](CCc1ccccc1)B(O)O)c1cnccn1
MIC50 [10]: 2.5 µM (≈ 1.08 µg/mL)

CC/C=C\C/C=C\C/C=C\CCCCCCCC(=O)O [LINOLENIC ACID]
MIC [3]: > 320 µg/mL
MIC [9]: 200 µg/mL (≈ 718 µM)

O=c1c2ccccc2[se]n1-c1ccccc1 [EBSELEN]
MIC50 [2]: 12.5 µg/mL (≈ 45.6 µM)

CCCOC(=O)CSC1=C(C(=O)O)N2C(=O)[C@H]([C@@H](C)O)[C@H]2[C@H]1C
MIC90 [7]: 1 µg/mL (≈ 2.91 µM)

CCCCCC/C=C/C=C\CCCCCCCC(=O)O
MIC [6]: < 20 µg/mL

CCC(C)(C)C(=O)O[C@H]1C[C@@H](C)C=C2C=C[C@H](C)[C@H](CC[C@@H]3C[C@@H](O)CC(=O)O3)[C@H]21 [SIMVASTATIN]
MIC [2]: > 320 µM

CO[C@H]1/C=C/O[C@@]2(C)Oc3c(C)c(O)c4c(O)c(c(/C=N/N5CCN(C)CC5)c(O)c4c3C2=O)NC(=O)/C(C)=C\C=C\[C@H](C)[C@H](O)[C@@H](C)[C@@H](O)[C@@H](C)[C@H](OC(C)=O)[C@@H]1C [RIFAMPIN]
MIC [3]: 0.01 µg/mL (≈ 0.0122 µM)

CN(NC(=O)CC(=O)NN(C)C(=S)c1ccccc1)C(=S)c1ccccc1 [ELESCLOMOL]
MIC99 [11]: 4 µg/mL
fold change (FC) [12]: >65

COc1ccc2nc3cc(Cl)ccc3c(Nc3cc(CN4CCCC4)c(O)c(CN4CCCC4)c3)c2n1 [PYRONARIDINE]
MIC [13]: 5 µg/mL (≈ 9.65 µM)

C[C@@H](O)[C@H]1C(=O)N2C(C(=O)O)=C(SC3CN(C4=NCCS4)C3)[C@H](C)[C@H]12 [TEBIPENEM]
MIC90 [1]: 1.25 µg/mL (≈ 3.26 µM)

NNC(=O)c1ccncc1 [ISONIAZID]
MIC [3]: 0.01 µg/mL (≈ 0.0729 µM)

CC[C@H](C)C(=O)O[C@H]1C[C@H](O)C=C2C=C[C@H](C)[C@H](CC[C@@H](O)C[C@@H](O)CC(=O)O)[C@H]21 [PRAVASTATIN]
EC50 [14]: 7.8 µM
EC50 [15]: 7.8 µM
EC50 [16]: 7.8 µM

COc1ccc(CCN(C)CCCC(C#N)(c2ccc(OC)c(OC)c2)C(C)C)cc1OC (configuration not stated) [VERAPAMIL]
MIC [2]: 125 µg/mL

COc1nc2ccc(Br)cc2cc1[C@@H](c1ccccc1)[C@@](O)(CCN(C)C)c1cccc2ccccc12 [BEDAQUILINE]
MIC [17]: 0.06 µg/mL (≈ 0.108 µM)

CC(C)C[C@H](NC(=O)[C@H](Cc1ccccc1)NC(=O)c1cnccn1)B(O)O [BORTEZOMIB]
MIC50 [10]: 4.3 µM (≈ 1.65 µg/mL)

C[C@@H]1CC[C@H]2[C@@H](C)C(=O)O[C@@H]3O[C@@]4(C)CC[C@@H]1[C@]32OO4 [ARTEMISININ]
MIC [18]: 75 µg/mL (≈ 266 µM)

O=C(Nc1cccc2c(=O)cc(-c3nnn[nH]3)oc12)c1ccc(OCCCCc2ccccc2)cc1 [PRANLUKAST]
MIC90 [19]: 5 µg/mL (≈ 10.4 µM)

O[C@@H](c1cc(C(F)(F)F)nc2c(C(F)(F)F)cccc12)[C@H]1CCCCN1 [(S,R)-MEFLOQUINE]
MIC [5]: 5 µg/mL (≈ 13.2 µM)

CC(C)(C)c1ccc(-c2nn(-c3ccccc3)cc2Cn2ccnc2)cc1
MIC [5]: 1.56 µg/mL (≈ 4.38 µM)

C[C@@H](CNC(=O)CNC(=O)C(N)CC(=O)O)B1OC2CC3CC(C3(C)C)[C@@]2(C)O1.Cl (some centres not stated)
MIC [2]: ≤ 5 µg/mL

CCCCC(CC)CNC(=N)NC(=N)NCCCCCCNC(=N)NC(=N)NCC(CC)CCCC.Cl.Cl (configuration not stated) [ALEXIDINE DIHYDROCHLORIDE]
MIC99 [20]: 0.05 µg/mL
